Several values for one entry are separate records, joined by “and”; a condition that tells them apart may be missing. Equal entries are not always repeated. Entries after “also recorded” stand apart in the source; their conditions may differ.
Tests used:
PDE1C of βTC3 cells = PDE1C of βTC3 cells (Mus musculus, UniProt Q64338); assay: cAMP PDE activity of mono-Q FPLC peak I (PDE1C) of βTC3 cells; assay type: biochemical; settings: for IC50: 1 μM cAMP substrate, average ± standard deviation, read-out: IC50 values Peak I PDE1
Procedure: (§1) Mono-Q-FPLC fractionation of PDE activities. Cells were scraped and homogenized in a buffer containing 50 mM Tris 7.5, 250 mM sucrose, 5 mM MgCl2, 0.2 μg/ml aprotinin, leupeptin and pepstatin, and 1 mM 4-(2-aminoethyl)benzenesulfonyl fluoride. Following a 30 min 150,000 g centrifugation, the supernatant was loaded onto a Pharmacia Mono-Q anion exchange column and PDE activities were fractionated by FPLC along a two step salt gradient. Column buffers were (A) 50 mM Tris 7.5 and (B) 50 mM Tris 7.5, 0.5 M NaCl. The gradient consisted of a 10 min increase to 0.2 M NaCl (20% B), and a 90 min increase to 0.5 M NaCl (100% B). One ml fractions were collected.
(§2) PDE assays and kinetic measurements. PDE assays were performed in duplicate as described (40). Analysis and plotting of kinetic data was performed by using the computer program kaleidagraph. The contributions of the high and low affinities cGMP PDEs of peak I to total PDE activity of this peak at a given substrate concentration were calculated using the formula: […]

[1] = test system: cGMP PDE activities of peak I (PDE1C and cGMP-specific PDE); assay: cGMP PDE activity of mono-Q FPLC peak I of βTC3 cells; assay type: biochemical, Mus musculus; settings: 50 μM 8 MM-IBMX
Procedure: as §1, §2

βTC3 cells = assay: Insulin release from βTC3 cells by radioimmunoassay; assay type: cell-based, Mus musculus; settings: 16.7 mM glucose; for Effect on glucose induced insulin secretion (in words): 2 hr incubation; for Insulin secretion, % of the cellular insulin content / Insulin secretion, % of the insulin content of the cells: 2 hr
Procedure: The cultured cells are starved for glucose in Hepes buffered Krebs-Ringer solution for 1 hr. Subsequently, 16.7 mM glucose and the potential phosphodiesterase inhibitors are added to the cells in Hepes buffered Krebs-Ringer solution and the cells are incubated for 2 additional hr. Each condition is assayed in triplicate. Insulin content of the supernatant after centrifugation, and of the cells after acid extraction, is determined by a radioimmunoassay. Control samples are treated with no potential inhibitor compound or, for control or calibration purposes, with compounds that will inhibit other PDE isozymes but that are known to lack PDE1C inhibitory activity or, for examining glucose-independent effects of potential inhibitor compound alone.
Cell Culture, treatments and measurements of insulin secretion. βTC3 cells were cultured as described and early passages were maintained (D'Ambra, R., Surana, M., Efrat, S., Starr, R. G., and Fleischer, N. (1990) Endocrinology 126, 2815-2822). For measurements of insulin secretion cells were plated onto a 12-well culture dishes 3-4 days, and refed 16 hr, prior to the assay. On the experiment day, cells were washed in Hepes-buffered Krebs-Ringer solution, and incubated in this glucose-free solution for 1 hr. Subsequently, 16.7 mM glucose and, when relevant, PDE inhibitors were added to the cells in Hepes-buffered Krebs-Ringer solution and the cells were incubated for 2 additional hr. Each condition was assayed in triplicates. Insulin content of the supernatant after centrifugation, and of the cells after acid extraction, was determined by a radioimmunoassay as described (D'Ambra, R., Surana, M., Efrat, S., Starr, R. G., and Fleischer, N. (1990) Endocrinology 126, 2815-2822).
Cyclic nucleotide phosphodiesterase inhibitors that augment insulin secretion were identified using used βTC3 insulinoma cells. For measurements of insulin secretion cells were plated onto a 12-well culture dishes 3-4 days, and refed 16 hr, prior to the assay. On the experiment day, cells were washed in Hepes-buffered Krebs-Ringer solution, and incubated in this glucose-free solution for 1 hour. Subsequently, 16.7 mM glucose and, when relevant, phosphodiesterase inhibitors were added to the cells in Hepes-buffered Krebs-Ringer solution and the cells were incubated for 2 additional hours. Each condition was assayed in triplicates. Insulin content of the supernatant after centrifugation, and of the cells after acid extraction, was determined by a radioimmunoassay.

[2] = test system: soluble PDE activities of βTC3 cells; assay: Overall PDE activity in inhibitor-treated βTC3 cells; assay type: cell-based; settings: Mus musculus
From the text: An estimate for the ability of the inhibitors to permeate and inhibit PDEs within cells was provided by measurements of overall PDE activity in inhibitor-treated cells. These measurements provide an underestimate of the in vivo effects of the inhibitors due to inhibitor dilution, degradation, and release of inhibitor bound to PDEs, that occur during extraction, and are more pronounced in particulate fractions.

involved PDE families = settings: cited from earlier work
PDE3 = settings: Beavo 1988; read-out: IC50 for inhibition of PDE3; cited from earlier work
Peak III PDE4 = assay: cAMP PDE activity of mono-Q FPLC peak III of βTC3 cells; assay type: biochemical, Mus musculus; settings: 2.5 μM rolipram, substrate cAMP 1 μM
Procedure: as §1, §2

PDE1C = settings: unlike PDE1A and 1B; cited from earlier work
[3] = test system: glucose induced insulin secretion; settings: Parker et al. 1995; cited from earlier work

Chain of PDE1C of βTC3 cells (Q64338 151-528 limits assumed): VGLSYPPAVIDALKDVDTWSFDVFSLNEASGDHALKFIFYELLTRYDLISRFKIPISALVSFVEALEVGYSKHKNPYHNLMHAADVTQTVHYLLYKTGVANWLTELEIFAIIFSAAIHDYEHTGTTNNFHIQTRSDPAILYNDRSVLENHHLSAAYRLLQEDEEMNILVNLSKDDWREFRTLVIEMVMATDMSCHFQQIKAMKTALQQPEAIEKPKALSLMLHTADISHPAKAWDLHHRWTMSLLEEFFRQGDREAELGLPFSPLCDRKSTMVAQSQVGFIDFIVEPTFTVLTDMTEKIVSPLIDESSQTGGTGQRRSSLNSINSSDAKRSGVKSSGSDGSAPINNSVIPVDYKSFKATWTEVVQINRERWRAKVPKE

In the case of `COCc1nc2c([nH]1)c(=O)n(C)c(=O)n2CC(C)C` [8 MM-IBMX, 8-methoxymethyl-1-methyl-3-(2-methylpropyl)xanthine], the IC50 (PDE1C of βTC3 cells) is reported as 7.5 µM, the inhibition at 50 µM (PDE1C of βTC3 cells; 50 μM 8 MM-IBMX, substrate cAMP 0.5 μM) is reported as 80% and the “Inhibition by 8 MM-IBMX, peak I” value ([1]; substrate cGMP 0.1 μM) is reported as 82%. The “Inhibition by 8 MM-IBMX, peak I” value ([1]; substrate cGMP 10 μM) was 57%, the “Effect on glucose induced insulin secretion (in words)” value (“Effect” for short) (βTC3 cells) was “strongly augmented insulin secretion; also recorded: dose dependent augmentation of insulin secretion” and the “Effect” value (βTC3 cells; listed as 8-methoxymethyl-isobutylmethylxanthine) was “dose dependent augmentation of insulin secretion”. For the same molecule, the “Insulin secretion, % of the cellular insulin content” value (βTC3 cells; inhibitor 0.5 mM) was 17.2%, the “Insulin secretion, % of the insulin content of the cells” value (βTC3 cells; inhibitor […]) was 9.3% and the inhibition at 500 µM ([2]; inhibitor applied to cells at 0.5 mM, read-out: Inhibition of soluble cGMP PDE activities in inhibitor-treated cells) was 30%.
In the case of `CC(C)Cn1c(=O)n(C)c(=O)c2[nH]cnc21` [IBMX, 1-methyl-3-isobutylxanthine], the “Insulin secretion, % of the cellular insulin content” value (βTC3 cells; inhibitor 0.5 mM) is listed as 8% and 18%, the “Insulin secretion, % of the cellular insulin content” value (βTC3 cells; inhibitor 0.5 mM, listed as isobutylmethylxanthine) is listed as 15.2% and the “IC50 values for the involved PDE families” value (involved PDE families) is listed as “low μM range”.
In the case of `Cc1[nH]c(=O)c(C#N)cc1-c1ccncc1` [Milrinone, 1,6-dihydro-2-methyl-6-oxo-(3,4′-bipyridine)-5-carbonitrile], the IC50 (PDE1C of βTC3 cells) is given as over 100 µM, the “Effect” value (βTC3 cells) is given as “did not affect insulin secretion” and the IC50 (PDE3) is given as 300 nM.
In the case of `CCCCOc1cc(CC2CNC(=O)N2)ccc1OC` (stereo not shown) [RO20-1724, 4-(3-butoxy-4-methoxybenzyl)-2-imidazolidinone], the “Effect” value (βTC3 cells) is reported as “limited effect; also recorded: did not” and the “Insulin secretion, % of the cellular insulin content” value (βTC3 cells; inhibitor 0.2 mM) is reported as 9.6%.
In the case of `COc1ccc(C2CNC(=O)C2)cc1OC1CCCC1` (stereo not shown) [Rolipram, 4-[3-(cyclopentyloxy)-4-methoxyphenyl]-2-pyrrolidinone], the IC50 (PDE1C of βTC3 cells) is reported as over 100 µM, the “Inhibition by Rolipram, peak III” value (Peak III PDE4) is reported as 97% and the “Inhibition by Rolipram, peak III” value (Peak III PDE4; listed as rolipram) is reported as “abolished”. The “Insulin secretion, % of the insulin content of the cells” value (βTC3 cells; over 10^4 fold increase in concentrations, up to 15 μM) was 7.9-10.7% and the inhibition at 15 µM ([2]; inhibitor applied to cells at 15 μM, read-out: Inhibition of soluble cAMP PDE activities in inhibitor-treated cells) was 37%.
For `CCOC(=O)C1=C[C@]2(CC)CCCN3CCc4c(n1c1ccccc41)[C@@H]32` [Vinpocetine, eburnamenine-14-carboxylic acid ethyl ester], the IC50 (PDE1C of βTC3 cells) is given as over 100 µM, the “Sensitivity of PDE1C to inhibitor (in words)” value (PDE1C) is given as “resistant” and the “Stimulation of glucose induced insulin secretion (in words)” value [3] is given as “ineffective simulator of glucose induced insulin secretion”.
In the case of `CCCOc1ccccc1-c1nc2nn[nH]c2c(=O)[nH]1` [Zaprinast, zaprinast], the IC50 (PDE1C of βTC3 cells) is reported as 4.5 µM, the “Effect” value (βTC3 cells) is reported as “enhanced glucose induced secretion; also recorded: partial stimulatory effects” and the “Insulin secretion, % of the cellular insulin content” value (βTC3 cells; inhibitor 0.5 mM) is reported as 6.2%. For the same molecule, the “Sensitivity of PDE1C to inhibitor (in words)” value (PDE1C) was “sensitive”.
With `COc1cc2c(cc1OC)-c1c/c(=N\c3c(C)cc(C)cc3C)n(C)c(=O)n1CC2` [trequinsin] the “Effect” value (βTC3 cells) was “no effect; also recorded: did not” and the “Insulin secretion, % of the cellular insulin content” value (βTC3 cells; inhibitor 30 nM) was 7%.

Source: patent US6812239B2, “Method of identification of inhibitors of PDE1C and methods of treatment of diabetes” (Albert Einstein College of Medicine of Yeshiva University, priority 1999, dated 2004)
